Results: patent US10703800B2, “Cell culture medium” (La Jolla Biologics, Inc., priority 2016, dated 2020)

Tests used:
[1] = test system: cell line producing mAb4; assay: Media supplementation with fatty acids, methyl esters, sterols, glycerides and isoprenoids, mAb4 production; assay type: cell-based; conditions: supplement in ethanol fed daily per Table 5 (5.0-20.0 μM, ethanol 0.09% v/v) vs control
Experimental: (§1) Monoclonal antibodies 1 (mAb1) and 4 (mAb4) were produced using two separate cell lines according to methods described in the previous Examples. Titer, percent of high molecular weight and low molecular weight species, acidic and basic charge variants, and glycosylation species profiles were assessed as in the previous Examples.
(§2) Fatty acids were dissolved in ethanol and fed daily according to Table 5 using two different process strategies for mAb1 and mAb4. The mAb1 process strategy was maintained at 37° C. then shifted to 31° C. during late exponential phase, with the pH being maintained at 7.0±0.2 throughout the culture. The mAb4 process strategy was maintained at 36.5° C. then shifted to 33° C. during production phase, with the pH being shifted from 7.0±0.1 to 6.8±0.1 in the late exponential phase. Both process strategies were maintained at 30% air saturation

[2] = test system: CHO.DXB11 cells; assay: Media supplementation with fatty acids, methyl esters, sterols, glycerides and isoprenoids, mAb1 production; assay type: cell-based, Chinese hamster; conditions: supplement in ethanol fed daily per Table 5 (2.7-10.7 μM, ethanol 0.05% v/v) vs control
Experimental: as §1, §2

[3] = test system: CHO.DXB11 cells; assay: Oleic acid in bench-scale bioreactors, baseline with ethanol, mAb 1; assay type: cell-based, Chinese hamster; conditions: oleic acid 40 μM fed daily vs baseline w/ethanol, 14 day fed-batch
Text: Ethanol supplemented media was further supplemented with fatty acids to determine if fatty acids altered mAb properties. Feed media was fed daily in a fed-batch process using bench-scale (2 L working volume) bioreactors. […] Media used for baseline measurements contains ethanol but no fatty acids.

[4] = test system: CHO.DXB11 cells; assay: Oleic acid in bench-scale bioreactors, baseline without fatty acids or ethanol, mAb 1; assay type: cell-based, Chinese hamster; conditions: oleic acid 40 μM + ethanol 0.057% v/v fed daily vs baseline without both, 14 day fed-batch
Text: Feed media was supplemented with fatty acids to determine if fatty acids altered mAb properties. Feed media was fed daily in a fed-batch process using bench-scale (2 L working volume) bioreactors.

[5] = test system: CHO.DXB11 derived clone; assay: Sodium chloride supplementation, microscale bioreactors, mAb3; assay type: cell-based, Chinese hamster; conditions: sodium chloride 4.59 mM and 9.18 mM fed daily, 12 day fed-batch
Experimental: Monoclonal antibody 3 (mAb3) is a monoclonal antibody produced using recombinant DNA technology. The expression vector is fully synthetic with both heavy- and light-chain gene sequences regulated by strong constitutive promoters. Gene sequences were confirmed by DNA sequencing. The expression vector was linearized by restriction enzymes and stably transfected into CHO.DXB11 cells by electroporation. Gene amplification steps were performed with increasing concentrations of methotrexate. Single cell cloning was performed after gene amplification. Select single cell clones were expanded and cryopreserved. The cell line used was a CHO.DXB11 derived clone.
Sodium chloride was fed daily at 4.59 mM and 9.18 mM using two different process strategies. Process strategy 1 was maintained at 36.5° C. then shifted to 31° C. during production phase. Process strategy 2 was maintained at 36.5° C. then shifted to 31° C. during production phase then re-shifted back to 36.5° C. during late production phase. Both process strategies were maintained at 30% air saturation and a pH of 7.0±0.2. Other glycan species and HMW % and LMW % are not listed because no significant change in levels were observed from sodium chloride supplementation.

[6] = process strategies 1 and 2, mAb3

Molecule	Effect on acidic charge variants [1]	Effect on relative percentage of G0 glycan species [1]	Effect on relative percentage of HMW species [1]	Effect on relative percentage of Man5 glycan species [1]	Effect on relative percentage of basic charge variants [1]	Effect on G0F glycan species [2]	Effect on acidic charge variants [2]	Effect on low molecular weight species [2]	Effect on G0 glycan species [2]	Effect on LMW species [1]	other results
CCCCCCCC(=O)OCC(O)CO (racemic) [1-octanoyl-rac-glycerol]	decreased	decreased	decreased	decreased	decreased	decreased	decreased	decreased			Effect on relative percentage of G0F glycan species [1]: decreased; Effect on titer [2]: increased
CC(C)CCC[C@@H](C)[C@H]1CC[C@H]2[C@@H]3CC=C4C[C@@H](O)CC[C@]4(C)[C@H]3CC[C@]12C [cholesterol]		decreased		decreased	decreased				Decreased		Effect on basic charge variants [2]: decreased
CCCCC/C=C\C/C=C\CCCCCCCC(=O)O [linoleic acid]	decreased	decreased		decreased			decreased	decreased		decreased	Effect on titer [2]: increased
CCCCCCCC(=O)OC [methyl octanoate]		decreased	decreased	decreased	decreased	decreased	decreased		Decreased		
CCCCCCCCCCCCCC(=O)O [myristic acid]	decreased	decreased	decreased	decreased	decreased	decreased	decreased		Decreased		
CCCCCCCC/C=C\CCCCCCCC(=O)O [oleic acid]	decreased	decreased		decreased		decreased	decreased		Decreased		Effect on G0F glycan species [3]: increased; Effect on G0 glycan species [3]: decreased; Effect on G1F glycan species [3]: decreased; Effect on G2F glycan species [3]: decreased; Effect on Man5 glycan species [3]: decreased; Effect on acidic charge variants [3]: decreased; Effect on antibody titer [3]: decreased; Effect on basic charge variants [3]: increased; Effect on high molecular weight species [3]: increased; Effect on low molecular weight species [3]: increased; Effect on G0F glycan species [4]: decreased; Effect on G0 glycan species [4]: decreased; Effect on G1F glycan species [4]: increased; Effect on G2F glycan species [4]: increased; Effect on Man5 glycan species [4]: decreased; Effect on acidic charge variants [4]: decreased; Effect on high molecular weight species [4]: decreased; Effect on monoclonal antibody titer [4]: increased
CCCCCCCCCCCCCCCC(=O)O [palmitic acid]	decreased						decreased	decreased	Decreased	decreased	Effect on basic charge variants [2]: decreased
[Cl-].[Na+] [sodium chloride]											Effect on HMW % ([5]; mAb3): did not change; Effect on LMW % ([5]; mAb3): did not change; Effect on G0F glycan species [5, 6]: decreased; Effect on G0 glycan species [5, 6]: increased; Effect on G1F glycan species [5, 6]: increased; Effect on G2F glycan species [5, 6]: increased; Effect on Man5 glycan species [5, 6]: increased; Effect on acidic charge variants [5, 6]: increased; Effect on basic charge variants [5, 6]: increased; Effect on monoclonal antibody titer [5, 6]: decreased; Effect on monoclonal antibody titer ([5]; process strategies 1 and 2, mAb3, listed as Sodium chloride): reduced
CCCCCCCCCCCCCCCCCC(=O)O [stearic acid]	decreased							decreased	Decreased		Effect on basic charge variants [2]: decreased
Cc1ccc(C(C)C)c(O)c1 [thymol]	decreased		decreased	decreased	decreased		decreased	decreased	Decreased	decreased	Effect on titer [2]: increased
cholesteryl acetate	decreased	decreased	decreased	decreased	decreased	decreased			Decreased	decreased	Effect on Man5 glycan species [2]: Decreased
